In US20250212873A1, “VOLATILE HDAC INHIBITORS FOR THERAPEUTIC AND PLANT APPLICATIONS” (The Regents of the University of California, priority 2022, published 2025):
“Also recorded” adds a separate entry of the source. Counter-ions that a name gives are not always drawn.

Legend:
[1] = system: Arabidopsis thaliana seedlings; assay: Odor Exposure assay, Arabidopsis thaliana seedlings (root and leaf development); assay type: in vivo; conditions: for lateral root growth (number of lateral roots) / leaf development (number of large / true leaves) / root growth (primary root length): 7-day exposure; for lateral root growth (number of lateral roots) / leaf development (number of large / true leaves) / root growth: headspace of 1% v/v in Paraffin oil; for root growth (primary root length): headspace of solution in Paraffin oil; for root growth: 3.5-day exposure
Protocol: The Odor Exposure assay consists of controlled exposure of volatile odor compounds to model plant Arabidopsis within enclosed aquariums and similar growth conditions (23° C. with a 12-hour light/dark cycle). For Arabidopsis, seedlings were aligned on agar plates for growth after a 4-day cold treatment process. The agar plates with seedlings were then placed in enclosed aquariums with moist paper towels soaked in 10 ml of DI water for humidity. The plates were placed along the wall, approximately 12 cm from odor dispensers which resided in the center of the glass tank.
The test compound odor dispensers, consisting of (60×15 mm) polystyrene Petri dishes containing 2 ml of 1% v/v in PO, are replaced at the 3.5, 5, and 6-day time mark during the 7-day experiment. Root growth is marked during each time mark and the plates were imaged. The plants are to be collected after the 7-day exposure, photographed, and the leaves/roots carefully dissected separated, flash frozen in liquid nitrogen, and preserved for future sequencing. Root growth is measured using ImageJ.
In order to study the physiological effects of long-term exposure to microbial volatiles the model system Arabidopsis was exposed for […] to diacetyl, a volatile chemical emitted by fermentation by yeast or microbial degradation in the soil associated with roots (R. J. Morcillo et al., EMBO J 39, e102602 (2020); M. A. Farag, et al., Phytochemistry 67, 2262-2268 (2006); and C. M. Ryu et al., P Natl Acad Sci USA 100, 4927-4932 (2003). The Odor Exposure assay consisted of controlled exposure of volatile HDAC inhibiting compounds to model plant Arabidopsis within enclosed aquariums and similar growth conditions. The test compound odor cartridges, consisting of 60×15 mm polystyrene Petri dishes containing 2 ml of indicated concentration in Paraffin Oil, were replaced at the 3.5, 5, and 6-day time mark during the 7-day experiment (FIG. 1A, left). In separate experiments the weight loss from the odor cartridges over time was measured and used it to calculate the concentration of diacetyl in the glass chambers in parts per million (FIG. 1A, right).
In order to directly evaluate whether exposure to vapors of the four HDAC-inhibitory VOCs affect root development, we performed a set of experiments using A. thaliana seedlings as before. Solutions for each of the four chemicals on a small petri dish were placed away from the seedlings growing in agar plate and enclosed in glass tank. The Root tips were marked at specified days post treatment start and photographs analyzed. The plants were collected after the 7-day exposure, photographed, and the roots were separated. Detailed measurements were made from the photos using ImageJ and the root length and numbers of lateral roots quantified at day 3.5 and day 7 after start if the treatment (FIG. 1B).
The Odor Exposure assay consists of controlled exposure of volatile odor compounds to model plant Arabidopsis within enclosed aquariums and similar growth conditions (23° C. with a 12-hour light/dark cycle). The test compound odor cartridges, consisting of (60×15 mm) polystyrene Petri dishes containing 2 ml of 1% v/v in paraffin oil (PO), were replaced at the 3.5, 5, and 6-day time mark during the 7-day experiment. Root growth was marked during each time point and the plates were imaged. Numbers of true leaves were also counted. The plants are to be collected after the 7-day exposure, photographed, and the leaves/roots carefully dissected separated, flash frozen in liquid nitrogen, and preserved for future sequencing. Root growth is measured using ImageJ.

[2] = system: A. thaliana plants (Col-0); assay: Flowering assay; assay type: in vivo, Arabidopsis thaliana; conditions: vapors from 0.1% solution
Text: Dramatic effects of VOCs have been seen in the seedling stage. The effects on with flowering timing were observed, since the process involves numerous changes in gene expression and therefore potentially susceptible to HDAC inhibitory volatiles. Mutants in HDACs like HDA5 show delayed flowering due to upregulation of flowering repressor genes like FLC and MAF1 (M. Luo et al., Plant J 82, 925-936 (2015)). Conversely, mutants in HDA9lead to early flowering due to increased expression of FLOWERING LOCUS T (FT) and AGAMOUS-LIKE 19 (AGL19) (M. J. Kang, et al., New Phytol 206, 281-294 (2015)). We placed 3 weeks old A. thaliana plants in the glass chambers and exposed them to the vapors of two of the VOCs, diacetyl and α-angelica lactone volatilizing from 0.1% solutions in the glass chamber.
Twenty-seven day old A. thaliana plants (Col-0), that had been transplanted at day 7 to soil, were placed in 10-gallon glass aquarium as chamber along with a petridish containing 2 ml of chemical dissolved in PO or PO alone were placed at the other side of the container. Plants were exposed to odors until all plants began to flower, with odor cartridges being replaced daily. Signs of flower buds opening were counted as plant flowering. One-way analysis of Variance (ANOVA) between groups was performed for plant exposure quantitative data using Graph Pad Prism 9.

[3] = system: Class I and Class II HDACs; assay: In vitro assays with purified human Class I and II HDACs (panel statements); assay type: biochemical; conditions: 15 mM
Protocol: Presented are data for selected compounds that act as Histone deacetylase inhibitors in vitro or HDAC inhibitors. 26 compounds were screened against purified human HDACs.
HDAC activity of class I HDACs (HDAC1 and 3) was measured with the fluorometric HDAC Activity Assay kit: HDAC1 (10011563, Cayman Chemical, Ann Arbor, MI) and HDAC3 (50073 BPS Bioscience, San Diego, CA), according to the manufacturer's instructions. HDAC activity of class II HDACs (HDAC4 and HDAC6) was measured with the fluorometric HDAC Activity Assay kit: HDAC4, […] (50064 and 50076, BPS Bioscience, San Diego, CA), according to the manufacturer's instructions. All compounds were tested in single dose duplicate mode at 15 mM concentrations in 1% DMSO, based on the IC50 of 2,3-butanedione established in earlier work. Due to interference, concentrations of >30 mM were not used in the IC50 calculation. To account for any interference at lower concentrations, all baseline measurements of blank wells (no HDAC enzyme) were performed and subtracted with the various concentrations of 2,3-butanedione.
Diacetyl and 3 structurally related VOCs were evaluated using in vitro assay kits for measuring activity of four purified HDACs. Of the four VOCs), each has a different functional group, two are natural in origin, previously detected from microbes that are known to be present in soil (M. C. Lemfack et al., Nucleic Acids Res 46, D1261-D1265 (2018); and R. H. Cagan, W. N. Zeiger, Proc. Nat. Acad. Sci. U.S.A. 75, 4679-4683 (1978)) and two that are not (α-angelica lactone and ethyl pyruvate). […] All 4 VOCs inhibited both Class I HDACs (L. L. Walling, The Myriad Plant Responses to Herbivores. J Plant Growth Regul 19, 195-216 (2000); and M. Heil, R. Karban, Trends Ecol Evol 25, 137-144 (2010)) and the Class II HDAC6 with differences in degree (FIG. 2A,B).

PC3 Cancer cell line = assay: Cancer cell viability assay, PC3; assay type: cell-based; conditions: 33 uM, triplicates
Protocol: (§1) Cells were maintained in a 37° C. incubator with 5% CO2 throughout the experiment. Compound stocks were dissolved in 10% DMSO, but final concentrations were made fresh in complete media as needed. 10% DMSO solvent was used as control in complete media. Cells were seeded onto 12-well plates and allowed 12-24 hours until treatment began to allow cells to adhere to wells. This was followed by minimum 5-day treatment of compounds, changing the media with treatment every 48 hours. Cell lines A549, PC3, and SK-MEL-5 were seeded at 8000 cells/well which would provide 80-100% confluency after 6-day growth. SH-SY5Y was seeded at 8000 cells/well then 16,000 cells/well due to slower growth and given at least 10 days for sufficient growth. After allotted growth times, cell counts were performed via Countess™ automated cell counter. All assays were completed with a minimum of triplicate replicates for all conditions and analyzed through GraphPad Prism One-way ANOVA for significance.

bacteria and fungi = conditions: literature (Debebe et al.); cited from earlier work
SH-SY5Y Cancer cell line = assay: Cancer cell viability assay, SH-SY5Y; assay type: cell-based; conditions: 33 micro-molar
Protocol: as §1

[4] = system: A. thaliana plants (Col-0); assay: Weed killing assay; assay type: in vivo, Arabidopsis thaliana; conditions: 1% (volume/volume) in PO, 7 days vapor exposure, 4 weeks recovery
Text: Since large scale changes in gene expression occur it is presumed that higher doses of some of the compounds could negatively affect some plants, even causing death. Since Arabidopsis thaliana is also considered a type of weed and goes by the common name Thale cress, it was used as a model to test the weed killing potential at higher doses. In order to evaluate the activity of some of these volatiles in plant killing twenty-seven day old A. thaliana plants (Col-0), that had been transplanted at day 7 to soil, were placed in 10-gallon glass aquarium as chamber along with a petridish containing 2 ml of chemical dissolved in PO at 1% (volume/volume) or PO alone were placed at the other side of the container. Plants were exposed to odor vapors for 7 days and observed for death.
Twenty-seven day old A. thaliana plants (Col-0), that had been transplanted at day 7 to soil, were placed in 10-gallon glass aquarium as chamber along with a petridish containing 2 ml of chemical dissolved in PO at 1% (volume/volume) or PO alone were placed at the other side of the container. Plants were exposed to odor vapors for 7 days and observed for death.

[5] = system: histone deacetylase enzymes (HDACs); conditions: literature (Shimazu et al.); cited from earlier work
[6] = listed as Alpha angelica lactone

CCC(=O)C(=O)CC [3,4-hexanedione]
lateral root growth (number of lateral roots) [1]: significant phenotypic changes; also recorded: promoted lateral root growth | leaf development (number of large / true leaves) [1]: changes in the number of true leaf development/growth; also recorded: significant increase; also recorded: significant phenotypic changes; also recorded: The trend for the compounds were to inhibit leave development, except for 3,4-hexanedione | root growth (primary root length) [1]: all the compounds except 3,4-hexanedione demonstrated significant root growth inhibition

CC1=CCC(=O)O1 [alpha angelica lactone]
root growth [1]: significant root growth inhibition | lateral root growth (number of lateral roots) [1, 6]: significant phenotypic changes; also recorded: promoted lateral root growth | leaf development (number of large / true leaves) [1, 6]: significant phenotypic changes | leaf development (number of large / true leaves) ([1]; listed as a-angelica lactone): significant decreases | leaf development (number of large / true leaves) ([1]; listed as α-Angelica lactone): changes in the number of true leaf development/growth | delay in flowering (in words) [2]: approximately a week | inhibition of Class II HDACs compared with Class I [3]: inhibits only Class 2 HDACs strongly | inhibition of Class II HDACs compared with Class I ([3]; listed as α-angelica lactone): inhibited Class II HDACs more strongly than Class I

CCOC(=O)C(C)=O [ethyl pyruvate]
changes in proliferation, PC3 (PC3 Cancer cell line): No Significant changes in proliferations | root growth [1]: significant root growth inhibition | lateral root growth (number of lateral roots) [1]: inhibition; also recorded: significant phenotypic changes | lateral root growth (number of lateral roots) ([1]; listed as Ethyl pyruvate): inhibited | root growth (primary root length) [1]: inhibited | antimicrobial action on bacteria and fungi (bacteria and fungi): potent antimicrobial | changes in proliferation, SH-SY5Y (SH-SY5Y Cancer cell line): Significant changes in proliferations were noted only for 33 micro molar 2,3-butanedione treatment

CCCOC=O [propyl formate]
plants killed (dead) [4]: 7 of 8 | changes in proliferation, PC3 (PC3 Cancer cell line): No Significant changes in proliferations | changes in proliferation, SH-SY5Y (SH-SY5Y Cancer cell line): Significant changes in proliferations were noted only for 33 micro molar 2,3-butanedione treatment

CC(O)CC(=O)O (stereo not drawn) [β-hydroxybutyrate]
inhibition of histone deacetylase enzymes (HDACs) [5]: known inhibitor
